These molecules were tested on Cryptosporidium parvum (assay: Cytopathic effect (CPE) based assay, C. parvum infected HCT-8 cells). Conditions: HCT-8 host cell viability (CellTiter-Glo), 48 hours treatment, read-out: Cp CPE EC50.
Procedure: Human ileocecal colorectal adenocarcinoma cells (HCT-8 [HRT-18] ATCC, CCL-34) were maintained in T-175 flasks (Corning, 431080) in complete growth medium (RPMI-1640 medium (Gibco, 11875) supplemented with 10% heat-inactivated horse serum (Gibco, 26050), 1×MEM non-essential amino acids (Gibco, 11140), 10 mM HEPES (Gibco, 15630), 100 units/mL penicillin, and 100 units/mL streptomycin) at 37° C. and 5% CO2 in a humidified incubator. Cultures were passaged twice weekly using 10 mL of 1×Phosphate-Buffered Saline (PBS) without Ca^2+ and Mg^2+ (Gibco, 20012) for washing and 3-5 mL per T-175 flask of TrypLE Express Enzyme (Gibco, 12604) for dissociation of adherent cells.
Cryptosporidium parvum oocysts purchased from the Sterling Laboratory, University of Arizona (Iowa isolate) were purified from infected calf feces using discontinuous sucrose and cesium chloride centrifugation gradients and stored in PBS solution containing 0.01% Tween 20, 100 units/mL penicillin and 100 units/mL gentamicin.
Excystation and infection protocols were developed following established methods with some modifications (Gut & Nelson, 1999, Upton et aL, 1995, Bessoff et aL, 2013). Briefly, oocysts were primed in 1 mL of 10 mM hydrochloric acid in 1× Hank's Balanced Salt Solution (HBSS) (Gibco, 14025) for 10 minutes with agitation at 1000 rpm, 37° C. on an Eppendorf thermomixer, then washed twice with 1 mL of room temperature non-acidic 1× HBSS by centrifugation at 13,000 rpm for 3 minutes at 25° C. Primed oocysts were further excysted at a concentration of 1×10^6 oocysts/μL in parasite infection medium consisting of a pre-warmed and pre-gassed 1:1 formulation of Leibovitz's L-15 medium (Gibco, 11415) and UltraCULTURE medium (Lonza, 12-725F) supplemented with 2 mM sodium taurocholate (Sigma, 86339-1), 10% heat-inactivated horse serum, and 200 μM L-ascorbic acid (Sigma, 95210) at 25° C. for 10 minutes. HCT-8 monolayer cells were infected with excysted cryptosporidium at a specified multiplicity of infection (MOI). All dilutions for subsequent assays were performed in parasite infection medium without sodium taurocholate. Pre-excysted oocysts were enumerated microscopically using a C-Chip disposable hemocytometer (NanoEnTek, DHC-N01).
Compound powders were dissolved in neat DMSO (Fisher, D4121) to 10 mM and stored at 4° C. prior to dilution into source plates. Dilutions were carried out using a Microlab STAR liquid handler (Hamilton) to obtain compound source plates containing the ten-point or eight-point three fold dilutions starting from 10 mM in duplicates. Source plates were stored at 4° C. prior to spotting into assay plates. Before administration, all compound source plates were equilibrated to room temperature. A specified volume of compounds from source plate were spotted to assay plate using an Echo Acoustic liquid handler (LABCYTE, 550) so that the final DMSO concentration was less than 0.5%. Each assay plate a specified number of DMSO-treated negative control wells and a well-studied potent active compound at 100 nM as positive control. As a quality control, all positive and negative-control wells were used to calculate a Z′-value and signal to noise ratio (S:N) for each plate.
Cryptosporidium spp are obligate-intracellular parasites that infect intestinal epithelial cells and the host cell is killed upon parasite egress. […] The loss of epithelial cells is due to both rapid parasite invasion/multiplication/egress and also pro-inflammatory immune response (Adams et al., 1994, Griffiths et al., 1994). We have observed a consistent cytopathic effect (CPE) in HCT-8 cells with C. spp infection the loss of viability of the host cells using CellTiter-Glo reagent.
Confluent HCT-8 cells in T-175 flasks were directly infected with excysted oocysts at an MOI (host to parasite) of 1:2 for C. parvum and 1:4 for C. hominis. The number of host-cells is determined using a NucleoCounter (Chemometec, NC-100) in a control flask. […]
`CNC(=O)c1ccc(-c2cnn3ccc(C(=O)N4CCOc5cc(F)ccc54)cc23)cc1` [Example 73] gave an EC50 of 964 nM. With `Fc1ccc(SCc2ccn3ncc(-c4ccc(C(F)(F)F)cc4)c3c2)cc1` [Example 21] the EC50 was > 20000 nM. `CNc1nnc(-c2ccc(-c3cnn4ccc(N(C)C(=O)c5ccc(F)cc5)cc34)cc2)s1` [Example 57] showed an EC50 of 5590 nM. In the case of `CN(C(=O)Nc1ccc(F)cc1)c1ccn2ncc(-c3ccc(C(F)(F)F)cc3)c2c1` [Example 47], the EC50 is reported as > 20000 nM. With `CN(C(=O)c1ccn2ncc(-c3cnc(N)c(Cl)c3)c2c1)c1ccc(C#N)cn1` [Example 86] the EC50 was 501 nM. For `CN(C(=O)c1ccn2ncc(-c3cnc(N)c(F)c3)c2c1)c1ccc(C#N)cc1` [Example 79], the EC50 was 205 nM. `CC(c1ccn2ncc(-c3ccc(C(N)=O)cc3)c2c1)N1C(=O)COc2cc(F)ccc21` (centres unmarked) [Example 66] showed an EC50 of 132 nM. `CN(C(=O)c1ccc(C(C)(F)F)nc1)c1ccn2ncc(-c3ccc(C(F)(F)F)cc3)c2c1` [Example 48] showed an EC50 of 6300 nM. `COc1ccc(-c2cnn3ccc(C(=O)N(C)c4ccc(C#N)cn4)cc23)nc1` [Example 60] gave an EC50 of 2370 nM. In the case of `CN(C(=O)c1ccn2ncc(-c3ccc(C(F)(F)F)cn3)c2c1)c1ccc(C#N)cc1` [Example 24], the EC50 is reported as > 20000 nM. In the case of `CN(C(=O)c1ccc(F)cn1)c1ccn2ncc(-c3ccc(C(F)(F)F)cc3)c2c1` [Example 51], the EC50 is reported as > 20000 nM. For `CN(c1ccn2ncc(-c3ccc(C(F)(F)F)cc3)c2c1)S(=O)(=O)c1ccc(F)cc1` [Example 31], the EC50 was > 20000 nM. `CN(C(=O)c1ccn2ncc(-c3ccc(C(F)(F)F)cc3)c2c1)c1ccc(Cl)cc1` [Example 3] gave an EC50 of 16500 nM. `CN(c1ccn2ncc(-c3ccc(C(F)(F)F)cc3)c2c1)S(=O)(=O)c1ccc(C#N)cc1` [Example 30] was tested, and the EC50 was > 20000 nM. In the case of `Cc1ccc(OCc2ccn3ncc(-c4ccc(C(F)(F)F)cc4)c3c2)nc1` [Example 15], the EC50 is reported as > 20000 nM. In the case of `CN(C(=O)c1ccc(F)cc1)c1ccn2ncc(-c3ccc(C(F)(F)F)cc3)c2c1` [Example 29], the EC50 is reported as > 20000 nM. In the case of `Cc1cc(-c2cnn3ccc(C(=O)N(C)c4ccc(C#N)cc4)cc23)cc(C)c1N` [Example 80], the EC50 is reported as 1170 nM. `CN(C(=O)c1ccn2ncc(-c3ccc(C(F)(F)F)cc3)c2c1)c1ccc(S(C)(=O)=O)cn1` [Example 34] showed an EC50 of 4870 nM. Molecule `Cc1ccc(N(C)C(=O)c2ccn3ncc(-c4ccc(C(N)=O)cc4)c3c2)nc1` [Example 63] has an EC50 of 195 nM. For `CS(=O)(=O)c1ccc(N(CC2CCOCC2)C(=O)c2ccn3ncc(-c4ccc(C(F)(F)F)cc4)c3c2)cc1` [Example 12], the EC50 was 12600 nM. `CN(C(=O)c1ccn2ncc(-c3ccc(C(N)=O)cc3)c2c1)c1ccc(Cl)cc1C=O` [Example 89] gave an EC50 of 85 nM. In the case of `Cc1ccc(-c2cnn3ccc(C(=O)N(C)c4ccc(C#N)cn4)cc23)nc1` [Example 59], the EC50 is reported as > 20000 nM. `CC(=O)Nc1ccc(-c2cnn3ccc(C(C)N(C)c4ccc(C)cn4)cc23)cc1` (centres unmarked) [Example 68] gave an EC50 of 19600 nM. For `CN(C(=O)c1ccn2ncc(-c3ccc(N)cc3)c2c1)c1ccc(C#N)cc1` [Example 42], the EC50 was 142 nM. `CN(C(=O)c1ccc(Cl)cc1)c1ccn2ncc(-c3ccc(C(F)(F)F)cc3)c2c1` [Example 55] gave an EC50 of 7300 nM. Work on `CN(C(=O)c1ccc(F)cc1)c1ccn2ncc(-c3ccc(C(N)=O)cc3)c2c1` [Example 56] yielded an EC50 of 692 nM. With `CNC(=O)c1ccc(-c2cnn3ccc(C(=O)N(C)c4ccc(C#N)cc4)cc23)cc1` [Example 67] the EC50 was 26 nM. `CN(C(=O)c1ccn2ncc(-c3cnc(N)c(C(F)(F)F)c3)c2c1)c1ccc(C#N)cn1` [Example 84] was tested, and the EC50 was 4270 nM. Work on `CN(C(=O)c1ccc(C2CC2)nc1)c1ccn2ncc(-c3ccc(C(F)(F)F)cc3)c2c1` [Example 49] yielded an EC50 of 19200 nM. `CN(C(=O)c1ccn2ncc(-c3ccc(C(F)(F)F)cc3)c2c1)C1=CCC(C#N)C=C1` (centres unmarked) [Example 1] gave an EC50 of 660 nM. In the case of `COc1cc(-c2cnn3ccc(C(=O)N(C)c4ccc(C#N)cn4)cc23)cnc1N` [Example 88], the EC50 is reported as 2250 nM. In the case of `Cc1cc(-c2cnn3ccc(C(=O)N(C)c4ccc(C#N)cc4)cc23)cnc1N` [Example 81], the EC50 is reported as 683 nM.

From patent US20190030009A1, “COMPOUNDS AND COMPOSITIONS FOR THE TREATMENT OF CRYPTOSPORIDIOSIS” (Novartis AG, priority 2016, published 2019)
